Assay results from patent US11931424B2, “Combination MCL-1 inhibitors with anti-body drug conjugates” (Gilead Sciences, Inc., priority 2021, dated 2024).

Test system: panel of breast cancer cell lines
Assay: Compound A with targeted agents and chemotherapies, 72-hour in vitro proliferation assays
Format: cell-based
Settings: 72-hour proliferation
[1] = AU565 cell line, compound A × partner
[2] = BT-20 cell line, compound A × partner
[3] = CAL-51 cell line, compound A × partner
[4] = CAL-85-1 cell line, compound A × partner
[5] = CAL-120 cell line, compound A × partner
[6] = CAL-148 cell line, compound A × partner
[7] = CAMA-1 cell line, compound A × partner
[8] = DU-4475 cell line, compound A × partner
[9] = EVSA-T cell line, compound A × partner
[10] = HCC1143 cell line, compound A × partner
[11] = MCF7 cells, Compound A × partner agent

## CC1(C)CCC(c2ccc(Cl)cc2)=C(CN2CCN(c3ccc(C(=O)NS(=O)(=O)c4ccc(N[C@H](CCN5CCOCC5)CSc5ccccc5)c(S(=O)(=O)C(F)(F)F)c4)cc3)CC2)C1 [ABT-263]
[1]
  Best CI: 0.61
  Bliss Volume: 9.56
  HSA volume: 3.63
  Loewe Volume: 8.42
  Synergy Score: 14.69
[2]
  Best CI: 0.05
  Bliss Volume: 36.91
  HSA volume: 37.77
  Loewe Volume: 37.81
  Synergy Score: 84.06
[3]
  Best CI: 0.09
  Bliss Volume: 18.29
  HSA volume: 17.50
  Loewe Volume: 18.72
  Synergy Score: 39.59
[4]
  Best CI: 0.17
  Bliss Volume: 13.36
  HSA volume: 16.06
  Loewe Volume: 15.97
  Synergy Score: 29.64
[5]
  Best CI: 0.21
  Bliss Volume: 15.10
  HSA volume: 15.51
  Loewe Volume: 16.04
  Synergy Score: 24.96
[6]
  Best CI: 0.10
  Bliss Volume: 28.25
  HSA volume: 22.50
  Loewe Volume: 27.96
  Synergy Score: 51.82
[7]
  Best CI: 0.14
  Bliss Volume: 19.67
  HSA volume: 17.49
  Loewe Volume: 19.32
  Synergy Score: 41.66
[8]
  Best CI: 0.48
  Bliss Volume: 24.62
  HSA volume: 22.37
  Loewe Volume: 22.67
  Synergy Score: 35.34
[9]
  Best CI: 0.36
  Bliss Volume: 15.42
  HSA volume: 14.19
  Loewe Volume: 14.63
  Synergy Score: 28.16
HCC38, compound A × partner
  Best CI: 0.13
  Bliss Volume: 27.10
  Synergy Score: 37.11
HCC70, compound A × partner
  Best CI: 0.03
  Bliss Volume: 44.63
  HSA volume: 44.49
  Loewe Volume: 44.97
  Synergy Score: 97.06
[10]
  Best CI: 0.05
  Bliss Volume: 27.56
  HSA volume: 26.07
  Loewe Volume: 27.51
  Synergy Score: 43.54
HCC1569, compound A × partner
  Best CI: 0.13
  Bliss Volume: 27.53
  HSA volume: 24.55
  Loewe Volume: 26.18
  Synergy Score: 46.64
HCC1806, compound A × partner
  Best CI: 0.03
  Bliss Volume: 45.40
  HSA volume: 46.37
  Loewe Volume: 46.26
  Synergy Score: 90.68
HCC1937, compound A × partner
  Best CI: 0.18
  Bliss Volume: 26.87
  HSA volume: 22.28
  Loewe Volume: 26.31
  Synergy Score: 43.69
HCC1954, compound A × partner
  Best CI: 0.03
  Bliss Volume: 36.37
  HSA volume: 36.78
  Loewe Volume: 37.10
  Synergy Score: 76.44
HCC2218, compound A × partner
  Best CI: 0.07
  Bliss Volume: 28.59
  HSA volume: 29.77
  Loewe Volume: 28.05
  Synergy Score: 59.76
HDQ-P1, compound A × partner
  Best CI: 0.09
  Bliss Volume: 27.19
  HSA volume: 27.41
  Loewe Volume: 28.17
  Synergy Score: 52.33
HMC-1-8, compound A × partner
  Best CI: 0.20
  Bliss Volume: 13.21
  HSA volume: 10.36
  Loewe Volume: 11.80
  Synergy Score: 21.09
JIMT-1, compound A × partner
  Best CI: 0.18
  Bliss Volume: 18.71
  HSA volume: 12.60
  Loewe Volume: 14.35
  Synergy Score: 19.55
KPL-1, compound A × partner
  Best CI: 0.14
  Synergy Score: 13.50

## CCN1CCN(Cc2ccc(Nc3ncc(F)c(-c4cc(F)c5nc(C)n(C(C)C)c5c4)n3)nc2)CC1 [Abemaciclib]
[2]
  Best CI: 0.79
  Bliss Volume: 3.95
  HSA volume: 5.53
  Loewe Volume: 5.32
[3]
  Best CI: 1.31
  Bliss Volume: 1.55
  HSA volume: −0.56
  Loewe Volume: 2.06
  Synergy Score: 2.51
[4]
  Best CI: 0.77
  Bliss Volume: 2.60
  HSA volume: 3.28
  Loewe Volume: 3.04
  Synergy Score: 6.47
[5]
  Best CI: 1.78
  Bliss Volume: −5.16
  HSA volume: −5.98
  Loewe Volume: −5.00
  Synergy Score: 1.03
[6]
  Best CI: 0.70
  Bliss Volume: 6.48
  HSA volume: 5.91
  Loewe Volume: 6.28
  Synergy Score: 15.50
[7]
  Best CI: 0.32
  Bliss Volume: −6.25
  HSA volume: −10.24
  Loewe Volume: −10.33
  Synergy Score: 1.56
[8]
  Best CI: 1.25
  Bliss Volume: 6.92
  HSA volume: 5.32
  Loewe Volume: 5.72
  Synergy Score: 5.07
[9]
  Best CI: 0.64
  Bliss Volume: 0.41
  HSA volume: −2.86
  Loewe Volume: −2.48
  Synergy Score: 0.77
HCC38, compound A × partner
  Best CI: 0.83
  Bliss Volume: −4.64
  HSA volume: −4.71
  Loewe Volume: −4.54
  Synergy Score: 6.14
HCC70, compound A × partner
  Best CI: 0.92
  Bliss Volume: 10.18
  HSA volume: 6.99
  Loewe Volume: 8.33
  Synergy Score: 18.15
[10]
  Best CI: 0.41
  Bliss Volume: 10.33
  HSA volume: 2.87
  Loewe Volume: 9.43
  Synergy Score: 7.43
HCC1569, compound A × partner
  Best CI: 0.18
  Bliss Volume: 14.07
  HSA volume: 13.17
  Loewe Volume: 14.38
  Synergy Score: 19.73
HCC1806, compound A × partner
  Bliss Volume: 4.89
  HSA volume: 0.30
  Loewe Volume: 3.10
  Synergy Score: 4.43
HCC1937, compound A × partner
  Best CI: 0.26
  Bliss Volume: 16.67
  Loewe Volume: 16.44
  Synergy Score: 28.56
HCC1954, compound A × partner
  Best CI: 0.89
  Bliss Volume: 1.45
  HSA volume: −0.39
  Loewe Volume: −1.29
  Synergy Score: 12.74
HCC2218, compound A × partner
  Best CI: 1.44
  Bliss Volume: −2.40
  HSA volume: −5.74
  Loewe Volume: −6.61
  Synergy Score: 4.14
HDQ-P1, compound A × partner
  Best CI: 0.82
  Bliss Volume: −0.79
  HSA volume: −0.19
  Loewe Volume: 0.43
  Synergy Score: 2.48
HMC-1-8, compound A × partner
  Best CI: 0.30
  Bliss Volume: 24.27
  HSA volume: 13.46
  Loewe Volume: 13.14
  Synergy Score: 24.23
JIMT-1, compound A × partner
  Best CI: 1.23
  Bliss Volume: 1.74
  HSA volume: 1.30
  Loewe Volume: 1.54
  Synergy Score: 1.34
KPL-1, compound A × partner
  Best CI: 0.77
  Bliss Volume: −3.02
  HSA volume: −1.63
  Loewe Volume: −2.87
[11]
  Best CI: 1.06
  Bliss Volume: 4.62
  HSA volume: 4.76
  Synergy Score: 8.46
